Source: patent US10603298B2, “Succinate dehydrogenase inhibitors (SDHi's)” (Medical Research Council, priority 2014, dated 2020)

Tests used:
[1] = tested on: rat brain transient middle cerebral artery occlusion (tMCAO) IR injury; assay: In vivo rat brain ischaemia and reperfusion (tMCAO): neurological score, infarct, histology; set-up: Median Neurological Score / Average Neurological Score: scale not given here; details: for Average Neurological Score / Median Neurological Score: dimethyl malonate 6 mg/kg/min i.v. infusion
From the text: The following murine models of warm ischaemia and/or IR injury were used: global ischaemia of ex vivo perfused mouse heart; in vivo mouse left descending coronary artery (LAD) ligation; in vivo rat brain transient middle cerebral artery occlusion (tMCAO); in vivo mouse kidney ischaemia by monolateral occlusion of the renal hilum; in vivo global ischaemia of the liver following cervical dislocation. The modelling of metabolic pathways in the ischaemic myocardium was done as described previously^11. The cell models of IR injury used were adult isolated primary rat cardiomyocytes and the mouse C2C12 myoblast cell line. Fluorescence within cardiomyocytes was assessed by laser scanning confocal microscopy. DHE fluorescence was used to measure ROS production, TMRM fluorescence in de-quench mode was used for mitochondrial membrane potential and NAD(P)H autofluorescence was used to assess the reduction potential of the NAD(P)H pools^8. To assess metabolic pathways in the ex vivo perfused mouse heart ^13C-labelled glucose, glutamine or aspartate were infused into the isolated heart and the ^13C isotopologues of CAC metabolites were then quantified by LC-MS. The effects of metabolic inhibitors on ischaemic metabolite accumulation and the distribution of ^13C-labels were assessed by i.v. infusion of metabolic inhibitors followed by LC-MS analysis of tissue metabolites. The redox state of the cardiac CoQ pool was assessed by LC. The amelioration of in vivo IR injury by metabolic inhibitors was assessed by i.v. administration of the inhibitors followed by measurement of the infarct size in the heart by triphenyltetrazolium chloride staining and in the brain by determining neurological function and infarct size by histology. Male spontaneously hypertensive stroke prone (SHRSP) rats from the colony maintained at the University of Glasgow (270-310 g) were anaesthetised with 5% isoflurane in oxygen and were intubated and ventilated throughout surgery (˜2.5% isoflurane/oxygen). Body temperature was maintained at 37±0.5° C. Animals underwent pre-stroke burrhole surgery^35 before transient middle cerebral artery occlusion (tMCAO, 45 min). Briefly, a silicone-coated monofilament was advanced (Doccol Corporation, USA) was advanced through the common carotid artery to block the origin of the MCA^36. Animals were maintained under anaesthesia during ischaemia. Immediately following removal of the filament, or after 5 mins of reperfusion, the brain was removed following cervical dislocation and infarct tissue separated from surrounding tissue on the ipsilateral side and snap frozen in liquid nitrogen for metabolomic analysis. Corresponding regions were taken from the contralateral side. […] These rats were then sacrificed by transcardiac perfusion fixation and the infarct area was assessed across 7 coronal levels following hematoxylin and eosin staining^39.

[2] = tested on: succinate accumulation in the ischaemic myocardium; assay: Succinate accumulation in the ischaemic myocardium in vivo (LC-MS); details: i.v. infusion in vivo, mouse; 30 min ischaemia
Method: For the in vivo heart IR model an open-chest, in situ heart model was used^31,32. Male mice (8-10 weeks; Charles River Laboratories, UK) were anaesthetised with sodium pentobarbital (70 mg/kg intraperitoneally (i.p.)), intubated endotracheally and ventilated with 3 cm H2O positive-end expiratory pressure. Adequacy of anaesthesia was monitored using corneal and withdrawal reflexes. Ventilation frequency was kept at 110 breaths per minute with tidal volume between 125-150 μL. A thoracotomy was performed and the heart exposed by stripping the pericardium. A prominent branch of the left anterior descending coronary artery (LAD) was surrounded by a 7-0 Prolene suture that was then passed through a small plastic tube. Ischaemia was induced by tightening the tubing against the heart surface. To assess metabolites during IR in vivo, mice were divided into three groups: 30 min ischaemia, 30 min ischaemia plus 5 min reperfusion and 30 min sham-operation in which the suture was placed but the LAD was not occluded. At the end of each protocol tissue was removed from the at risk and peripheral areas of the heart, selected visually by comparing white versus red tissue, and snap-frozen in liquid nitrogen. Sham-operated tissue was removed from the presumed risk zone. Infarct size was assessed after 30 min of ischaemia followed by 120 min reperfusion using 2% triphenyltetrazolium chloride staining and is expressed as a percentage of the risk zone^33. […] For the LC separation, column A was Sequant Zic-Hilic (150 mm×4.6 mm, internal diameter 3.5 μm) with a guard column (20 mm×2.1 mm 3.5 μm) from HiChrom, Reading, UK. […] (150 mm×2.1 mm i.d. 3.5 μm) with guard column (20 mm×2.1 mm i.d. […]) from HiChrom, Reading, UK. […] Spectra were analysed using both targeted and untargeted approaches. For the targeted approach spectra were analysed using XCalibur Qual Browser and XCalibur Quan Browser softwares (Thermo Scientific) by referencing to an internal library of compounds. […] The arrays of spectra were then statistically analysed using the functions explore.data and univariate of the R package mum a^40.

In the case of COC(=O)CC(=O)OC [dimethyl malonate], the “Average Neurological Score” value ([1]; Baseline, tMCAO rats) is reported as 31.67, the “Median Neurological Score” value ([1]; Baseline, tMCAO rats) is reported as 32.00 and the “Average Neurological Score” value ([1]; Day 1 after tMCAO) is reported as 22.67. For the same molecule, the “Median Neurological Score” value ([1]; Day 1 after tMCAO) was 22.00, the “Average Neurological Score” value ([1]; Day 2 after tMCAO) was 24.00 and the “Median Neurological Score” value ([1]; Day 2 after tMCAO) was 24.00. The “Average Neurological Score” value ([1]; Day 3 after tMCAO) was 24.33, the “Median Neurological Score” value ([1]; Day 3 after tMCAO) was 25.00 and the “neurological function associated with stroke” value ([1]; i.v. infusion during rat tMCAO) was “preventing the decline in neurological function”. For the same molecule, the “protection against brain IR injury” value ([1]; i.v. infusion during rat tMCAO) was “protective”, the “volume of infarcted brain tissue caused by IR injury” value ([1]; i.v. infusion during rat tMCAO) was “decreasing the volume of infarcted brain tissue” and the “pyknotic nuclear morphology and vacuolation of the neuropil (histology)” value ([1]; i.v. infusion during rat tMCAO, hematoxylin and eosin) was “reducing the pyknotic nuclear morphology and vacuolation of the neuropil”. The “succinate accumulation in the ischaemic myocardium” value [2] was “strikingly decreased succinate accumulation”.
